Where a name gives a salt, the structure may show the parent alone. Read-outs that look alike come from different tables or passages of the source.
Legend:
SUDHL10 = assay: Antiproliferation assay SUDHL10 (Assay 7); format: cell-based; conditions: Homo sapiens, SU-DHL10; SUDHL10 cells, 72 h, CellTiter-Glo; median; read-out: IC50 Antiproli SUDHL10 [M] (median)
Experimental: (§1) Assessment of the Anti-Proliferative Effect of Compounds in Different Cell Lines
(§2) The impact of compounds on the proliferation of different cell lines was assessed using the CellTiter-Glo® Luminescent Cell Viability reagent from Promega (G7573).
(§3) In parallel, cells were plated in a reference (day 0) plate for time zero determination.
(§4) Rim wells were excluded. The cells were incubated for 72 h hours in a humidified incubator at 37° C. The day 0 plate was measured by adding 30 μL/well of CTG solution (CellTiter-Glo® Luminescent Cell Viability reagent, Promega G7573) to time zero wells in the reference plate followed by a 10 minutes incubation and luminescence reading at 0.1 ms. using the PHERAstar FS microplate reader (BMG Labtech).
(§5) After 72 h incubation, the treated plates were measured in the same way as the day 0 plate mentioned above.

MCL1 protein = MCL1 protein (Homo sapiens (Human), UniProt Q07820); assay: PIxEL: protein-protein interaction in permeabilized cells by ELISA (Assay 5); format: cell-based; conditions: permeabilized RKO cells, biotin-BIM BH3 peptide, median
Experimental: Assay 5 PI×EL: Protein-Protein Interaction in Permeabilized Cells by ELISA
Most MCL1 protein molecules are localized at the mitochondria outer membrane and sequester pro-apoptotic proteins through binding of their BCL2 homology domain 3 (BH3 domain). MEB buffer (150 mM mannitol, 10 mM HEPES pH 7.5, 50 mM KCl, 20 μM EDTA, 20 μM EGTA, 5 mM potassium succinate, 0.1% protease-free BSA (SIGMA) with low dose digitonin (0.002%) permeabilizes plasma membrane while leaves live mitochondria, where MCL1 maintains its native localization and conformation. Unlike biophysical assays (e.g. TR-FRET) that use truncated recombinant MCL1 protein, this assay uses full length endogenous MCL1 protein at mitochondria outer membrane. It measures the interaction between MCL1 protein and biotinylated BIM BH3 peptide. Compounds can compete with BIM BH3 peptide to bind to MCL1 protein. This serum free assay measures the affinity between MCL1 protein and compound in permeabilized cells, therefore it is not affected by serum binding and cell permeability, and can measure the intrinsic compound affinity.
On day 1, RKO colon cancer cell line cells were plated at 0.8 million cells/ml, 100 μl/well in 96-well flat bottom TC plates (Corning). MCL1 antibody (Santa Cruz sc-12756) were diluted at 200 fold (final concentration 1 μg/ml) in carbonate buffer (Thermo Fisher Scientific, pH 9.6), and 50 μl of diluted antibody was added to each well of high bind ELISA plates (SARSTEDT). Each plate was tapped to make sure liquid covering entire bottom of wells and incubate at 37° C. overnight.
On the second day, MCL1 antibody was washed from ELISA plate. 250 μl Odyssey® Blocking Buffer (PBS) (Li-Cor) was added to each well, incubated at room temperature for at least 1 hour, then washed once with 250 μl 1×PBST. Plates with RKO cells were gently washed once with 100 μl/well PBS, once with 100 μl/well MEB buffer without digitonin, then 100 μl of MEB buffer with 0.002% digitonin was gently added to each well. Compounds were added with HP Tecan compound dispenser in 3-fold dilution series, highest dose 30 μM, 10-dose per compound in quadruplicates. Biotin-BIM peptide (synthesized by 21st Century) was added with HP Tecan compound dispenser at 0.2 μM immediately after the addition of compounds. Plates were rocked for 1 hour at room temperature. Then MEB buffer was aspirated and 50 μl of CHAPS buffer (50 mM Tris-Cl, pH 7.4, 150 mM NaCl, 1% CHAPS, 1 mM EDTA, 1 mM EGTA, complete protease inhibitors (Roche), PhosSTOP (Roche)) was added to each well. Plates were rocked for 1 hour at 4° C., then 45 μl cell lysate from each well were transferred to ELISA plates coated with MCL1 antibody. Plates were incubated overnight in the cold room with rocking.
On the third day, ELISA plates were washed once with 250 μl 1×PBST. Streptavidin-poly-HRP (Thermo Fisher Scientific) was diluted to 20 ng/ml in Odyssey blocking buffer plus 0.05% Triton-100, and 100 μl was added to each well of the ELISA plate. Plates were incubated at room temperature for 1 hour with rocking, then washed with 100 μL 1×PBST for 3 times. Each SuperSignal ELISA Femto Maximum Sensitivity substrate was added to a 50-ml tube and mixed, then 100 μl of mixed substrate was added to each well. Plates were shaken for 1 minute then luminescence was measured by Envision plate reader […]. Signal of each well were normalized by no-compound control and no-cell control. IC50 was calculated using Graphic Pad PRISM software.

HMC-1-8 = assay: Antiproliferation assay HMC-1-8 (Assay 7); format: cell-based
Experimental: as §1, §2, §3, §4, §5

MCL-1 = MCL-1 (Homo sapiens (Human), UniProt Q07820, K194A/K197A/R201A); assay: Protein-compound interaction assay (SPR assay, Assay 8); format: binding; conditions: immobilized MBP-MCL-1, 25° C., geometric mean
Text: Assay 8 Protein-Compound Interaction Assay (SPR Assay)
The ability of the compounds described in this invention to bind to MCL-1 may be determined using surface plasmon resonance (SPR). This allows for the quantification of binding in terms of the equilibrium dissociation constant (KD [M]), as well as association and dissociation rate constants (kon [1/M 1/s] and koff [1/s], respectively). The measurements may be performed using Biacore® T200 or Biacore® S200 instruments (GE Healthcare).
For SPR measurements, recombinant MCL-1 (amino acids 173-321, N-terminal fused to Maltose Binding Protein (MBP) (SEQ ID 1) purchased from Beryllium (Bedford, Mass., USA)) was immobilized using standard amine coupling (Johnsson B et al, Anal Biochem. 1991 Nov. 1; 198(2):268-77). Briefly, carboxymethylated dextran biosensor chips (Series S Sensor Chip CMS, GE Healthcare) were activated with 1-ethyl-3-(3-dimethylaminopropyl)-carbodiimide hydrochloride (EDC) and N-hydroxysuccinimide (NHS) according to the supplier's instructions. MBP-MCL-1 was diluted in 1×PBS-P+ (GE Healthcare) and injected on the activated chip surface. Subsequently, a solution of 1 M ethanolamine-HCl (GE Healthcare) was injected to block unreacted groups, resulting in approximately 400-2500 response units (RU) of immobilized protein. A reference surface was generated by treatment with NHS-EDC and ethanolamine-HCl. […] For SPR binding-measurements, serial dilutions of compound (eight dilution steps, typically ranging from 0.2 nM up to 1 μM) were injected over immobilized protein. […] Compounds were injected for 60 s followed by a dissociation time of up to 1000 s.
The double-referenced sensorgrams were fit to a simple reversible Langmuir 1:1 reaction mechanism as implemented in the Biacore® T200 and S200 evaluation software (T200 evaluation software version 2.0 and S200 evaluation software version 1.0, GE Healthcare).

[1] = HMC-1-8 cells, 72 h, CellTiter-Glo; single determinations; read-out: IC50 Antiproli HMC-1-8
[2] = 72 h, HMC-1-8 cells, CellTiter-Glo, single determinations, read-out: IC50 Antiproli HMC-1-8

MCL1 protein, sequence (Q07820 whole entry): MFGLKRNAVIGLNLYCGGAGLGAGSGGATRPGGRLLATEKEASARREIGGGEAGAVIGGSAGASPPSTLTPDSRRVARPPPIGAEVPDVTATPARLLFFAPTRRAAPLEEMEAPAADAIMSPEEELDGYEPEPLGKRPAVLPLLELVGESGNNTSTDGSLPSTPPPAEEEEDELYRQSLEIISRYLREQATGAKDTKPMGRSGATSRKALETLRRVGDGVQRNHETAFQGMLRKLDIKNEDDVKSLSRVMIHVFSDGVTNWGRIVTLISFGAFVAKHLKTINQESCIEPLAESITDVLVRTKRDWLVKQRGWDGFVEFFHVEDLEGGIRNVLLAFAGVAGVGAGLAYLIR
MCL-1, sequence (Q07820 whole entry K194A/K197A/R201A, looked up): as the sequence (Q07820 whole entry) above, with K194A, K197A, R201A counted along it

Structure (SMILES) | IC50 (SUDHL10) | IC50 (MCL1 protein) | Kd (MCL-1) | kon (MCL-1) | koff (MCL-1; read-out: koff) | koff (MCL-1) | kon [1/M 1/s] (MCL-1) | IC50 (HMC-1-8; [1]) | IC50 (HMC-1-8; [2])
Cc1c2c(nn1C)COCCCCn1c(C(=O)O)c(CCCOc3cccc4c3CCCC4)c3ccc(F)c-2c31 (racemic) [Example 18, (rac)-13-fluoro-11,12-dimethyl-1-(3-((5,6,7,8-tetrahydronaphthalen-1-yl)oxy)propyl)-4,5,6,7,9,11-hexahydropyrazolo[4′,3′:9,10][1]oxa[6]azacycloundecino[8,7,6-hi]indole-2-carboxylic acid] | 1.5e-06 M | – | – | – | – | – | – | – | –
CCc1c2c(nn1C)COCCCCn1c(C(=O)O)c(CCCOc3cccc4cc(F)ccc34)c3ccc(F)c-2c31 (single isomer, unassigned; enantiomer 1) [Example 24, 3-ethyl-4-fluoro-7-{3-[(6-fluoronaphthalen-1-yl)oxy]propyl}-2-methyl-2,10,11,12,13,15-hexahydropyrazolo[4′,3′:9,10][1,6]oxazacycloundecino[8,7,6-hi]indole-8-carboxylic acid (enantiomer 1)] | – | 0.424 µM | 0.0029 µM | 3.3e+06 M⁻¹ s⁻¹ | 0.0097 s⁻¹ | – | – | 2.5 µM | –
CCc1c2c(nn1C)COCCCCn1c(C(=O)O)c(CCCOc3cccc4cc(F)ccc34)c3ccc(F)c-2c31 (single isomer, unassigned; enantiomer 1) [Example 22, 3-ethyl-4-fluoro-7-{3-[(6-fluoronaphthalen-1-yl)oxy]propyl}-2-methyl-2,10,11,12,13,15-hexahydropyrazolo[4′,3′:9,10][1,6]oxazacycloundecino[8,7,6-hi]indole-8-carboxylic acid-N-ethylethanamine salt (enantiomer 1)] | – | 1.34 µM | 0.0016 µM | – | – | 0.0072 s⁻¹ | 4.4E6 1/M 1/s | 3.53 µM | 2.44 µM
Cc1c2c(nn1C)COCCCCn1c(C(=O)O)c(CCCOc3cccc4c3CCC4)c3ccc(F)c-2c31 (racemic) [Example 19, (rac)-1-(3-((2,3-dihydro-1H-inden-4-yl)oxy)propyl)-13-fluoro-11,12-dimethyl-4,5,6,7,9,11-hexahydropyrazolo[4′,3′:9,10][1]oxa[6]azacycloundecino[8,7,6-hi]indole-2-carboxylic acid] | 1.5e-06 M | – | – | – | – | – | – | – | –

Further lines, with some results ahead:

IC50 (SUDHL10) | IC50 (MCL1 protein) | Kd (MCL-1) | kon (MCL-1) | koff (MCL-1; read-out: koff) | koff (MCL-1) | kon [1/M 1/s] (MCL-1) | Structure (SMILES) | IC50 (HMC-1-8; [1]) | IC50 (HMC-1-8; [2])
– | 2.38 µM | 0.0015 µM | 1.4e+07 M⁻¹ s⁻¹ | 0.021 s⁻¹ | – | – | CCc1nn(C)c2c1-c1c(F)ccc3c(CCCOc4cccc5cc(F)ccc45)c(C(=O)O)n(c13)CCCCOC2 (single isomer, unassigned; enantiomer 1) [Example 39, 3-ethyl-4-fluoro-7-{3-[(6-fluoronaphthalen-1-yl)oxy]propyl}-1-methyl-1,10,11,12,13,15-hexahydropyrazolo[4′,3′:9,10][1,6]oxazacycloundecino[8,7,6-hi]indole-8-carboxylic acid-N-ethylethanamine salt (enantiomer 1)] | – | 3.17 µM
1.5e-06 M | – | – | – | – | – | – | Cc1nn(C)c2c1-c1c(F)ccc3c(CCCOc4cccc5cc(F)ccc45)c(C(=O)O)n(c13)CCCCOC2 (racemic) [Example 32, (rac)-13-fluoro-1-(3-((6-fluoronaphthalen-1-yl)oxy)propyl)-10,12-dimethyl-4,5,6,7,9,10-hexahydropyrazolo[4′,3′:9,10][1]oxa[6]azacycloundecino[8,7,6-hi]indole-2-carboxylic acid] | – | –

From patent US11286263B2, “Macrocyclic fluorine substituted indole derivatives” (The Broad Institute, Inc., priority 2017, dated 2022)
